Test results reported in patent US10980727B2, “Mixtures containing (E)-3-benzo[1,3]dioxol-5-yl-N,N-diphenyl-2-propenamide” (SYMRISE AG, priority 2016, dated 2021).

Columns and labels:
Assay type in all cases: physicochemical
[1] = Solubility of BDDPA in binary and ternary solvent systems at 23° C. and 90° C.
Description: The solubility of (E)-3-benzo[1,3]dioxol-5-yl-N,N-diphenyl-2-propenamide (BDDPA) in different solvent combinations was tested.
The amount of solvents 1 to 3 add up to 100 wt.-% with the amount of (E)-3-benzo[1,3]dioxol-5-yl-N,N-diphenyl-2-propenamide. Thus the composition of mixture 19 is 5 wt.-% BDDPA, 47.5 wt.-% triacetin and 47.5 wt.-% peppermint oil.

[2] = Stability of the mixtures on storage at 5° C.; details: mixtures of table 2
Description: Several of the mixtures of example 1 were stored at night at 5 C to observe the stability.
(§1) The amount of solvent added to the amount of (E)-3-benzo[1,3]dioxol-5-yl-N,N-diphenyl-2-propenamide is added up to 100 wt.-% in each mixture (1 to 18). Thus the composition of mixture 1 is 99 wt.-% ethanol, 1 wt.-% BDDPA.

[3] = Solubility of BDDPA in different solvents at room temperature
Description: The solubility of (E)-3-benzo[1,3]dioxol-5-yl-N,N-diphenyl-2-propenamide (BDDPA) in different solvents was tested.
as §1

- BDDPA dissolved in binary and ternary solvent combinations at room temperature ([1]; 23° C.): completely dissolved
- BDDPA dissolved in binary and ternary solvent combinations at high temperature ([1]; 90° C.): remains stably dissolved
- Recrystallization on storage over night below room temperature [2]: no recrystallization occurs
- BDDPA dissolved in the respective solvents at room temperature ([3]; 23° C., solvents of table 1): completely dissolved
- Temperature at which BDDPA dissolves in the solvents of table 1 ([3]; where necessary by means of ultrasonification): ≤ 65 °C
Compound: O=C(/C=C/c1ccc2c(c1)OCO2)N(c1ccccc1)c1ccccc1 [BDDPA, (E)-3-benzo[1,3]dioxol-5-yl-N,N-diphenyl-2-propenamide]
